In US9730447B2, “Fungicidal amides” (E I DU PONT DE NEMOURS AND COMPANY, priority 2013, dated 2017):

How the values were obtained:
Assay type in all cases: in vivo
[1] = system: Puccinia recondite f. sp. tritici; assay: Test D: preventive spray on wheat seedlings, Puccinia recondite f. sp. tritici (wheat leaf rust), visual disease rating; details: 100 = 100% disease control, 0 = no control, unmarked values
In short: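 Wheat seedlings sprayed to run-off with 40 ppm (160 g ai/ha) or 10 ppm (40 g ai/ha) suspension in acetone/water with 250 ppm surfactant, inoculated next day with leaf rust spores. After 24 h saturated at 20 °C then 6 days at 20 °C, visual rating of disease control (0–100) relative to controls.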

[2] = system: Erysiphe graminis f. sp. tritici; assay: Test E: preventive spray on wheat seedlings, Erysiphe graminis f. sp. tritici (wheat powdery mildew), visual disease rating; details: 100 = 100% disease control, 0 = no control, unmarked values
In short: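 Wheat seedlings were sprayed to run-off with 40 or 10 ppm suspension (160 or 40 g ai/ha) and dusted with spores the next day. They were then kept 8 days at 20 °C. Disease was rated visually as % control relative to untreated controls (0–100).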

Botrytis cinerea = assay: Test A: preventive spray on tomato seedlings, Botrytis cinerea (gray mold), visual disease rating; details: 100 = 100% disease control, 0 = no control relative to controls, unmarked values
Description: General protocol for preparing test suspensions for Tests A-E: the test compounds were first dissolved in acetone in an amount equal to 3% of the final volume and then suspended at the desired concentration (in ppm) in acetone and purified water (50/50 mix by volume) containing 250 ppm of the surfactant Trem® 014 (polyhydric alcohol esters). The resulting test suspensions were then used in Tests A-E. Compounds were sprayed with either a 40 ppm or 10 ppm (*) test suspension to the point of run-off on the test plants which is the equivalent of a rate of 160 g ai/ha or 40 g ai/ha, respectively.
The test suspension was sprayed to the point of run-off on tomato seedlings. The following day the seedlings were inoculated with a spore suspension of Botrytis cinerea (the causal agent of gray mold on many crops) and incubated in a saturated atmosphere at 20° C. for 48 h, and moved to a growth chamber at 27° C. for 2 days, after which time visual disease ratings were made.
Results for Tests A-E are given in Table A. In the Table, a rating of 100 indicates 100% disease control and a rating of 0 indicates no disease control (relative to the controls). A dash (-) indicates no test results.

Septoria tritici = assay: Test C: preventive spray on wheat seedlings, Septoria tritici (wheat leaf blotch), visual disease rating; details: 100 = 100% disease control, 0 = no control, unmarked values
In short: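 Wheat seedlings sprayed to run-off at 40 ppm or 10 ppm (160 or 40 g ai/ha) in acetone/water with surfactant, inoculated with Septoria tritici spores next day. Held 48 h saturated at 24 °C, then 21 days at 20 °C. Visual rating scored as % disease control relative to controls.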

[3] = system: Stagonospora nodorum (also known as Septoria nodorum); assay: Test B: preventive spray on wheat seedlings, Stagonospora nodorum (wheat glume blotch), visual disease rating; details: 100 = 100% disease control, 0 = no control, unmarked values
In short: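 Compounds in acetone/water (50/50) with 250 ppm Trem 014 surfactant were sprayed to run-off at 40 ppm (160 g ai/ha) or 10 ppm (40 g ai/ha). Seedlings were inoculated with S. nodorum spores the next day, then held 48 h saturated at 20 °C and 6 days in a growth chamber at 20 °C. Visual rating as % disease control vs untreated.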

Row | Compound | Test D disease control rating [1] [%] | Test E disease control rating [2] [%] | Test A disease control rating (Botrytis cinerea) [%] | Test C disease control rating (Septoria tritici) [%] | Test B disease control rating [3] [%]
1 | Cc1cnn(-c2ccc(-c3ccccc3NC(=O)c3ccccc3C(F)(F)F)cn2)c1 [compound 44] | 99 | 0 | 40 | 62 | 0
2 | COc1ccccc1-c1cnn(-c2ccc(-c3ccccc3NC(=O)c3cn(C)nc3C(F)F)cn2)c1 [compound 8] | 100 | 99 | 99 | 99 | 99
3 | O=C(Nc1ccccc1-c1cnc(-n2ccc(Br)n2)c(F)c1)c1ncccc1C(F)(F)F [compound 71] | 100 | 100 | 94 | 100 | 100
4 | Cn1cc(C(=O)Nc2ccccc2-c2cnc(-n3cc(Cl)cn3)c(F)c2)c(C(F)F)n1 [compound 74] | 100 | 100 | 96 | 100 | 0
5 | COc1cc(OC)cc(C2CC(c3ccc(-c4ccccc4NC(=O)c4ncccc4C(F)(F)F)cn3)=NO2)c1 (racemic) [compound 20] | 99 | 0 | 89 | 96 | 100
6 | Cn1cc(C(=O)Nc2ccccc2-c2ccc(-n3cc(Br)cn3)nc2)c(C(F)F)n1 [compound 31] | 100 | 99 | 100 | 100 | 100
7 | Cc1cc(-c2ccccc2NC(=O)c2ncccc2C(F)(F)F)cnc1-n1ccc(C(F)(F)F)n1 [compound 37] | 100 | 100 | 95 | 100 | 100
8 | Cn1cc(C(=O)Nc2ccccc2-c2cnc(-n3ccc(-c4ccccc4)n3)c(F)c2)c(C(F)F)n1 [compound 76] | 100 | 99 | 99 | 100 | 0
9 | Cn1cc(C(=O)Nc2ccccc2-c2ccc(-n3ccc(-c4ccc(F)cc4)n3)nc2)c(C(F)F)n1 [compound 99] | 100 | 91 | 89 | 90 | 0
10 | Cn1cc(C(=O)Nc2ccccc2-c2cnc(-n3cc(Cl)cn3)c(Cl)c2)c(C(F)F)n1 [compound 62] | 100 | 98 | 84 | 100 | 0
11 | O=C(Nc1ccccc1-c1ccc(-n2cc(Cl)cn2)nc1)c1ncccc1C(F)(F)F [compound 32] | 100 | 99 | 99 | 100 | 100
12 | N#Cc1ccn(-c2ncc(-c3ccccc3NC(=O)c3ncccc3C(F)(F)F)cc2F)n1 [compound 86] | 100 | 79 | 89 | 98 | 0
13 | O=C(Nc1ccccc1-c1ccc(-n2cc(-c3ccc(F)cc3)cn2)nc1)c1ncccc1C(F)(F)F [compound 30] | 89 | 69 | 33 | 91 | 82
14 | Cn1cc(C(=O)Nc2ccccc2-c2ccc(-n3ccc(-c4ccccc4)n3)nc2)c(C(F)F)n1 [compound 41] | 100 | 84 | 99 | 100 | 40
